{
  "source": "patent US8119339B2",
  "about": "“Heteroduplex tracking assay” (priority 2000, dated 2012)",
  "key": {"[1]": {"tested_on": "GHOST.CCR5 and GHOST.CXCR4 indicator cells (R5-tat, X4-tat)", "experiment": "Rapid Cell Fusion Assay for coreceptor utilization (CAT-ELISA)", "assay_type": "cell-based", "settings": "cloned patient env gene expressed on HL3T1 cells, fusion for 48 hours", "description": "Viral coreceptor usage was separately evaluated through the use of a Rapid Cell Fusion Assay. This assay enables determination of coreceptor usage from cloned HIV env gene sequences obtained directly from patient samples (e.g. blood, mucosal tissue). This method allows for greater efficiency in determination of viral coreceptor usage, by circumventing the need for cultivation of primary isolates. The Rapid Cell Fusion Assay can advantageously produce a result within one week after obtaining a patient sample. In addition, the Rapid Cell Fusion Assay allows study of patient-derived virus obtained from sites other than the peripheral blood, particularly those sites from which cultured virus cannot be obtained. For example, while circulating macrophages and CD4^+ T cells are the dominant reservoir of HIV-1, viral populations distinct from those in the peripheral blood exist in many reservoirs, including the genital tract.\nThe HL3T1 cell line was derived by stable transfection of parental HeLa cells with a chloramphenicol acetyltransferse (CAT) reporter construct containing a CAT gene is linked to an HIV-1 LTR promoter. The HL3T1 cells produce CAT protein only upon introduction of an active HIV-1 Tat protein. HL3T1 cells were transfected with a cloned env gene derived from a patient of interest. The cloned env gene product is expressed on the surface of the HL3T1 cells.\nIndicator cell lines GHOST.CCR5 and GHOST.CXCR4 (respectively hereinafter “R5-tat” and “X4-tat”) cells were transfected with pSV2tat72, a construct expressing high levels of HIV-1 Tat under the control of the SV40 early promoter.\nHL3T1 cells containing a cloned patient env gene were fused to R5-tat and X4-tat cells. Cell surface envelope protein variants will selectively interact with either CCR5 or CXCR4. Fusion only occurs when an HL3T1 envelope protein interacts with an indicator cell expressing a compatible coreceptor. Therefore, HL3T1 cells will fuse with either R5-tat and X4-tat, depending on the patient's env gene specificity. To initiate fusion, transfected HL3T1 and R5-tat or X4-tat cells were mixed in 6-well plates at 37° C. and allowed to fuse for 48 hours. To quantitate fusion, the cells were lysed with 0.5% NP-40. Fusion of HL3T1 cells to R5-tat or X4-tat activated CAT gene expression. Aliquots of the cell lysates were monitored for CAT production using a commercially available kit (CAT-ELISA, Boehringer Mannheim).\nTwenty-five clones from each sample were analyzed to ensure that the fusion assay reflected the heterogeneous nature of HIV-1 populations."}, "CD4+ cells": {"tested_on": "CD4+ cells", "experiment": "CD4+ cell count in women before and after antiretroviral therapy", "assay_type": "in vivo, human", "settings": "Status before combination therapy, single patient, on the listed anti-HIV therapy", "experimental": "(§1) Coreceptor use was examined in twenty-two women who participated in two prospective studies of HIV-1 infection. Nineteen were enrolled in the Bronx-Manhattan site of Women's Interagency HIV Study (WIHS), a National Institutes of Health (NIH) multicenter study of the natural history of HIV-1 infection in women. Three took part in a study of HIV-1 pathogenesis performed at the Wadsworth Center of the New York State Department of Health in Albany, N.Y. Both studies included individuals with a broad spectrum of HIV-1 disease. The institutional review boards at each clinical site and the New York State Department of Health approved the investigation. Each woman provided informed consent at enrollment.\n(§2) To examine the effect of combination antiretroviral therapy on HIV-1 coreceptor use, women infected with CXCR4 strains were sought.\n(§3) At that time, eight women were receiving antiretroviral therapy, primarily zidovudine monotherapy. While under study, however, 12 initiated new combination regimens; 9 received HAART (Group I) and 3 received two or more nucleoside analogues (Group II). […] In Table 1, “Before therapy” refers to data obtained at the visit immediately preceding initiation of new two or three drug antiretroviral therapy in Groups I & II. For Group III, data from the first time point are shown (a). “Follow-up” refers to data obtained at the first time point following the initiation of the anti-HIV therapy listed for Groups I & II."}, "[2]": {"tested_on": "V3 region of the env gene", "experiment": "Coreceptor use predicted from V3 loop sequences of plasma HIV-1 RNA molecular clones", "settings": "number of molecular clones of virion-derived plasma HIV-1 RNA", "description": "HIV-1 virions were isolated from plasma samples as described (Fang et al. (1996) J. AIDS Hum. Retro. 12:352-7). Reverse transcriptase polymerase chain reaction amplification produced a 920-bp amplicon spanning the V3 region of the env gene. Reaction conditions were controlled rigorously to minimize recombination and other artifacts (Fang et al. (1996)). Amplified products were cloned into a TOPO™ TA vector (Invitrogen, Carlsbad, Calif.), verified by restriction digestion, and sequenced. Alignment of the sequences was initially done using the PILEUP program in the GCG Suite (Genetics Computer Group, Madison, Wis.), then checked manually. Envelope sequences were used to predict coreceptor use on the basis of the overall charge of the V3 loop and the presence of basic or acidic residues at positions […] (Bhattacharyya et al. (1996); and Hung et al. (1999)).\nThese sequences predicted a pattern of coreceptor use that essentially paralleled the one obtained by using viral culture (Table 2B, Coreceptor use determined by cocultivation of PBMCs vs. sequence analysis of plasma HIV-1 RNA). […] At each time point, coreceptor use was assayed by co-cultivating PBMCs and determining the V3 loop sequence of virion-derived HIV-1 RNA."}, "HIV-1": {"tested_on": "HIV-1", "settings": "Status before combination therapy, single patient, on the listed anti-HIV therapy", "experimental": "as §1, §2\nOnce the study population was selected, blood was drawn and separated into plasma and cell components (Anastos et al. (2000) J. AIDS Hum. Retro. (in press); Fang et al. (1995)). HIV-1 RNA in plasma was quantitated by using NucliSens (Organon Teknika Corp., Durham, N.C.), with a lower limit of quantitation of ˜80 copies/ml. The CCR5 genotype of each patient was determined as described (Samson et al. (1996)).\nas §3"}, "[3]": {"tested_on": "HIV-1 strains using CCR5 versus CXCR4", "experiment": "QXR, proportion of patient HIV-1 using CCR5", "assay_type": "in vivo, human", "settings": "Status before combination therapy, single patient, on the listed anti-HIV therapy", "procedure": "To quantitate HIV-1 coreceptor use, inventors constructed a variable, λ, as the proportion of strains using CCR5. This variable has since been renamed QXR. […] QXR values were assessed by utilizing qualitative assay data derived from primary isolates, biologic clones, and sequences of the V3 portion of the env gene. […] Thus, for the vast majority of virions, each virion uses either CCR5 or CXCR4. This relationship can be stated as a mixture\nD=QXR(CCR5)+(1−QXR)(CXCR4); 0≦QXR≦1, where D is the distribution of viral phenotypes. By design, it is a binomial population.\nQXR values were constructed by relating data derived from the same patient sample by using three different analyses: biologic cloning, V3 sequencing of patient-derived molecular clones, and qualitative assays of primary isolates. To construct QXR values, inventors first calculated the proportion of biologic and, if available, molecular clones using CCR5 at each time point, then linked the proportion to the qualitative coreceptor use score (− to 3+) of primary isolates obtained simultaneously. Data that were not available were interpolated. […]\nThe large number of biologic and molecular clones permitted derivation of a system to quantitate the proportion of virus in a clinical specimen that uses each coreceptor. […] By applying this method, it was determined the proportion of virus using each coreceptor for each patient over time. […]"}},
  "note": "Values joined by “and” are separate entries in the source; they are usually repeats but may differ in a detail not shown here. Equal entries are not always repeated.",
  "data": [
    {"compound": "CTRPNNNTRKSVHIGPGQAFYATGDIIGNMRKAHC [AF3P-12]", "values": [
      {"measurement": "CORECEPTOR", "setting": "[1]", "value": "CCR5"}
    ]},
    {"compound": "CIRPNNNTRTSIRIGPRQAFYATGNIIGDIRQAYC [AF2P12-10]", "values": [
      {"measurement": "CORECEPTOR", "setting": "[1]", "value": "CXCR4"}
    ]},
    {"compound": "CTRPSNNRRKSIHMGPGQAFYGT.DDIIGDIRKARC [AF6P-12]", "values": [
      {"measurement": "CORECEPTOR", "setting": "[1]", "value": "CCR5"}
    ]},
    {"compound": "CIRPNNNTRTSIRIGPGQAFYATGNIIGGIRQAYC [AF2P12-2]", "values": [
      {"measurement": "CORECEPTOR", "setting": "[1]", "value": "CCR5"}
    ]},
    {"compound": "CTRPNNNTRKSVHIGPGQAFYATGDIIGDIRQAYC [AF5P-5]", "values": [
      {"measurement": "CORECEPTOR", "setting": "[1]", "value": "CCR5"}
    ]},
    {"compound": "CIRPNNNTRTSIRIGPGQAFYATGNIIGDIRQAYC [AF2P12-12]", "values": [
      {"measurement": "CORECEPTOR", "setting": "[1]", "value": "CCR5"}
    ]},
    {"compound": "Cc1cn([C@H]2C[C@H](N=[N+]=[N-])[C@@H](CO)O2)c(=O)[nH]c1=O", "note": "[AZT, zidovudine]", "values": [
      {"measurement": "CD4+ count, cells per mm3", "setting": "CD4+ cells", "value": "188 cells per mm3 and 42 cells per mm3 and 259 cells per mm3 and 307 cells per mm3 and 43 cells per mm3"},
      {"measurement": "Distribution of Co-Receptor Use Predicted by V3 Loop Sequences, CCR5", "setting": "[2]", "value": 9},
      {"measurement": "Distribution of Co-Receptor Use Predicted by V3 Loop Sequences, CXCR4", "setting": "[2]", "value": 4},
      {"measurement": "HIV-1 RNA, log copies per ml", "setting": "HIV-1", "value": "5.30 log copies per ml and 4.94 log copies per ml and 5.58 log copies per ml and 5.04 log copies per ml and 5.23 log copies per ml"},
      {"measurement": "QXR, proportion of HIV-1 Using R5", "setting": "[3]", "value": "0.36 (2×) and 0.90 and 0.00 (2×)"}
    ]},
    {"compound": "CTRPINNRRKSIHIGPGQAFYGT.DDIIGDIRQAHC [AF6P-10]", "values": [
      {"measurement": "CORECEPTOR", "setting": "[1]", "value": "CCR5"}
    ]},
    {"compound": "CTRPNDNIRKSVHIGPGQAFYATGDIIGDIRRAHC [AF10P97-2]", "values": [
      {"measurement": "CORECEPTOR", "setting": "[1]", "value": "CCR5"}
    ]},
    {"compound": "CTRPSNNRRKSIHMGPGQAFYGT.DDIIGGIRKARC [AF6P-11]", "values": [
      {"measurement": "CORECEPTOR", "setting": "[1]", "value": "CCR5"}
    ]},
    {"compound": "CTRPNNNTKKSVHIGPGQAFYATGDIIGDIRQAYC [AF5P-6]", "values": [
      {"measurement": "CORECEPTOR", "setting": "[1]", "value": "CCR5"}
    ]},
    {"compound": "CTRPNNNTRKSVHIGPGQAFYATGDILGNIRQAHC [AF3P-11]", "values": [
      {"measurement": "CORECEPTOR", "setting": "[1]", "value": "CCR5"}
    ]},
    {"compound": "CTRPSNNRRKSIHKGDQDKHSMEHDDVIGDIRKARC [AF6P-7]", "values": [
      {"measurement": "CORECEPTOR", "setting": "[1]", "value": "negative"}
    ]},
    {"compound": "CTRPNNNTITSIRIGPGQAFYATGSIIGNTRQAHC [AF9P2-4]", "values": [
      {"measurement": "CORECEPTOR", "setting": "[1]", "value": "CCR5"}
    ]},
    {"compound": "Cc1cn([C@H]2C=C[C@@H](CO)O2)c(=O)[nH]c1=O", "note": "[d4T, stavudine]", "values": [
      {"measurement": "CD4+ count, cells per mm3", "setting": "CD4+ cells", "value": 9, "unit": "cells per mm3"},
      {"measurement": "HIV-1 RNA, log copies per ml", "setting": "HIV-1", "value": 5.28, "unit": "log copies per ml"},
      {"measurement": "QXR, proportion of HIV-1 Using R5", "setting": "[3]", "value": 0.36}
    ]},
    {"compound": "........RKSVHIGPGQAFYATGDIIGNIRKAHC [AF3P-2]", "values": [
      {"measurement": "CORECEPTOR", "setting": "[1]", "value": "negative"}
    ]},
    {"compound": "CTRPINNRRKSIHMGPGQAFYGT.DDIIGDIRKARC [AF6P-1]", "values": [
      {"measurement": "CORECEPTOR", "setting": "[1]", "value": "CCR5"}
    ]},
    {"compound": "CIRPNNNTRQSVHIGPGQALYTTEIIGDIRKAHC [AF7P-9]", "values": [
      {"measurement": "CORECEPTOR", "setting": "[1]", "value": "CCR5"}
    ]},
    {"compound": "CTRPNDNIRKRVHIGPGQAFYATGDVIGDIRRAHC [AF10P97-4]", "values": [
      {"measurement": "CORECEPTOR", "setting": "[1]", "value": "CXCR4"}
    ]},
    {"compound": "CTRPNNNTITSIRIGPGQAFYATGSIIGNIRQAHC [AF9P2-3]", "values": [
      {"measurement": "CORECEPTOR", "setting": "[1]", "value": "CCR5"}
    ]},
    {"compound": "CTRPNNNTRKSVHIGLGQAFYATGDIIGNIRKAHC [AF3P-9]", "values": [
      {"measurement": "CORECEPTOR", "setting": "[1]", "value": "CCR5"}
    ]},
    {"compound": "CTRPNNNTRKSVHIGPGQAFYATGDIIGNIRKAHC [AF3P-4]", "values": [
      {"measurement": "CORECEPTOR", "setting": "[1]", "value": "CCR5"}
    ]},
    {"compound": "CTRPNNNTRKSVHIGPGQAFYATGDIIGNIRQAHC [AF3P-6]", "values": [
      {"measurement": "CORECEPTOR", "setting": "[1]", "value": "CCR5"}
    ]},
    {"compound": "CIRPNNNTRTSIRIGPGQAFYATGNIVGDIRQAYC [AF2P12-11]", "values": [
      {"measurement": "CORECEPTOR", "setting": "[1]", "value": "CCR5"}
    ]}
  ]
}
